Measurements from US20210338665A1, “MEDICAL USE OF PROSTACYCLIN RECEPTOR AGONIST” (CHINESE PLA GENERAL HOSPITAL, priority 2018, published 2021).

Test system: SD rats in a low-pressure low-oxygen environment
Test: Rat high altitude model in a low-pressure low-oxygen cabin (380 mmHg, simulated altitude of 5,500 meters): cardio-pulmonary function
Format: in vivo
Settings: twice every day for 14 days, compared with the model group; for mean pulmonary arterial pressure (mPAP): P<0.05
Protocol: 40 SD rats (about 200 g, male, clean) are purchased from Beijing Vital River Laboratory Animal Technology Co. Ltd and have the license number of SCXK(Jing)2016-0006. The SD rats are fed in a low-pressure oxygen cabin, and regularly fed with a complete nutritional feed under the conditions of the room temperature of 22 to 25° C. and the humidity of 30% to 50%.
Solvent configuration: 20% of HP-β-CD and 80% of double distilled water, and pH=8.
A blank control group: normal-pressure normal-oxygen feeding
A model group: a low-pressure low-oxygen cabin, and intragastric administration of a solvent
An experimental group A: a low-pressure low-oxygen cabin, and intragastric administration of sc0253 (5 mg/kg) as well as a solvent
An experimental group B: a low-pressure low-oxygen cabin, and intragastric administration of sc0253 (10 mg/kg) as well as a solvent
40 rats are randomly divided into four groups, and each group includes 10 rats. 3 groups are placed into an experiment module, the pressure inside the module is regulated to 380 mmHg, a high altitude environment with an altitude of 5,500 meters is simulated, the experiment module is opened for 1 hour every day so as to add feed and water for animals and carry out corresponding medicine treatment, meanwhile, the environment where the rats are positioned are kept alternate day and night according to a ratio of 12h:12h, and after 14 days, intragastric administration is respectively carried out in which the solvent (the model group), the sc0253 (5 mg/kg) and the solvent (the experimental group A) or the sc0253 (10 mg/kg) and the solvent (the experimental group B) are respectively applied, and the operation is carried out twice every day and continued for 14 days. Rats in the fourth group are placed in the same room to be fed in the normal-pressure normal-oxygen environment (the blank control group).
3% pentobarbital sodium (0.2 mL/100 g) is intraperitoneally injected to anesthetize the rats, and ultrasonic detection is carried out. The following ultrasonic data is recorded: right ventricular ejection fraction (RVEF); and right ventricular fractional shortening (RVFS). Then the anesthetized rats are fixed on an operating table in a supine position mode, tracheotomy is carried out, a breathing machine is connected, thoracotomy is carried out to expose the hearts, a catheter is inserted into each right ventricle, right heart catheterization is carried out, and the right ventricular systolic pressure is recorded. Then each catheter is slowly pushed forwards, and can reach a corresponding pulmonary artery through a corresponding right ventricular outflow tract, the pressure waveform of a monitor is observed, and the mean pulmonary arterial pressure mPAP is recorded. The rats are executed, the hearts are taken out, the atrial tissue and attached fat are removed, left and right ventricles are separated, moisture is sucked up by filter paper, the weights of the right ventricles and the left ventricles are respectively weighed, and (RV/(LV+IS)) is calculated.
All the data is represented by x±s, comparison among the groups is single factor analysis of variance, when P<0.05, it represents that the difference has a statistical significance, and statistical treatment is carried out by adopting an SPSS19.0 software package.

[1] = experimental group B: sc0253 10 mg/kg intragastric, ultrasonic detection, P<0.01

O=C(O)COCC1(F)CCN(c2cncc(N(c3ccccc3)c3ccc(F)cn3)n2)CC1 [sc0253]
mean pulmonary arterial pressure (mPAP) (experimental group A: sc0253 5 mg/kg intragastric): obviously reduced | right ventricular hypertrophy index RV/(LV+OS) (experimental group B: sc0253 10 mg/kg intragastric, P<0.01): obviously reduced | mean pulmonary arterial pressure (mPAP) (experimental group B: sc0253 10 mg/kg intragastric): obviously reduced | right ventricular ejection fraction (RVEF) [1]: obviously increased | right ventricular fractional shortening (RVFS) [1]: obviously increased
